According to patent US9878046B2, “Adverse side-effects associated with administration of an anti-hyaluronan agent and methods for ameliorating or preventing the side-effects” (Halozyme, Inc., priority 2010, dated 2018):

Key:
[1] = system: PC3 prostate carcinoma cell line; assay: Antitumor activity in PC3 prostate cancer xenograft model; assay type: in vivo, human (xenograft in athymic male nude mice); set-up: key to % TGI (% Tumor Growth Inhibition): TR = Tumor Regression
Description: Tumor cells from the PC3 prostate carcinoma cell line were grown to approximately 80% confluency then trypsinized, collected, washed once in HBSS (Hank's balance salt solution, Mediatech Inc.), then re-suspended in 50% Matrigel® in HBSS at 2×10^7 cells/mL on ice before inoculation into animals. Athymic male nude mice (Nu/Nu (Ncr); Taconic Farms; average weight ˜20 g) were inoculated intramuscularly (IM) with 0.05 mL of this cell suspension, peritibially, in the left hind leg (adjacent to the tibia periosteum). The implants in the animals were assessed twice a week and allowed to grow to a mean tumor volume of approximately 500 mm^3 (Day −2; Table 12). Actual tumor volumes were determined using VisualSonics Vevo 770 high-resolution ultrasound, using two perpendicular axial dimensions.
Animals were sorted randomly and grouped into 6 groups of 8 mice per group (6+2 satellite mice). Treatment groups were vehicle (API buffer), PEGPH20 (157,500 Units/kg, 4.5 mg/kg), low dose dexamethasone (1.25 mg/kg), high dose dexamethasone (5 mg/kg), PEGPH20 (4.5 mg/kg)+low dose dexamethasone (1.25 mg/kg) and PEGPH20 (4.5 mg/kg)+high dose dexamethasone (5 mg/kg). The dose and frequency of the PEGPH20 (or vehicle) intravenous injections was 157,500 Units/kg or approximately 4.5 mg/kg, every 3rd day starting on Day 0 (Days 0, 3, 6, 9, 12) with a total of 5 injections (Q3Dx5) with a dose volume of 0.1 mL. This dosing and frequency regimen was previously shown to inhibit xenograft tumor growth by 34-70%. The doses and frequency of the dexamethasone intraperitonal injections were 1.25 mg/kg at the low dose and 5 mg/kg at the high dose, once a day until Day 13 (QDx13) with a dose volume of 0.1 mL.
The tumor volumes of all mice were measured pre-treatment on Day −2 (average tumor volume of ˜500 mm^3) and on Day 1, 6, 9, 13, 16 and 20 by capturing images using the VisualSonic ultrasound system and using an ultrasound imaging software program to calculate tumor volume (Table 12).

[2] = system: BxPC3 pancreatic cancer cell line; assay: Antitumor activity in BxPC3 pancreatic cancer xenograft model; assay type: in vivo, human (xenograft in athymic female nude mice)
Description: Tumor cells from the BxPC3 pancreatic cancer cell line were grown to approximately 80% confluency, trypsinized, collected, washed once in HBSS (Hank's balance salt solution, Mediatech Inc.), and re-suspended in 50% Matrigel in HBSS at 2×10^7 cells/mL on ice before inoculation into animals. Athymic female nude mice (average weight ˜20 g) were inoculated intramuscularly (IM) with 0.05 mL of cell suspension, peritibially, in the left hind leg (adjacent to the tibia periosteum). The tumors in the animals were assessed twice a week and allowed to grow to a mean tumor volume of approximately 250 mm^3 (Day −1; Table 13). Actual tumor volumes were determined using VisualSonics Vevo 770 high-resolution ultrasound.
The animals were randomly grouped into 6 groups of 8 animals per group (6+2 satellite mice) and treated with vehicle (API buffer), PEGPH20 (157,500 Units/kg, 4.5 mg/kg), low dose dexamethasone (1.25 mg/kg), high dose dexamethasone (5 mg/kg), PEGPH20 (4.5 mg/kg)+low dose dexamethasone (1.25 mg/kg) and PEGPH20 (4.5 mg/kg)+high dose dexamethasone (5 mg/kg). The dose and frequency of the PEGPH20 (or vehicle) intravenous injections was 157,500 Units/kg or approximately 4.5 mg/kg, on Days 0, 3, 7, 10, 13 and 17 for a total of 6 injections starting on Day 0 (dose volume of 0.1 mL). The doses and frequency of the dexamethasone intraperitonal injections was 1.25 mg/kg at the low dose and 5 mg/kg at the high dose, once a day until Day 17 (QDx17) with a dose volume of 0.1 mL.
The tumor volumes of all mice were measured pre-treatment on Days −4 and −1 (mean tumor volume of ˜250 mm^3) and on Days 4, 7, 11, 14 and 17 by capturing images using the VisualSonic ultrasound system and using an ultrasound imaging software program to calculate the tumor volume (Table 13). The percent tumor growth inhibition (% TGI) was calculated as described above in Example 9A.

[3] = system: 46 different cytokines, chemokines, acute-phase reactants, and other plasma inflammatory biomarkers; assay: Human inflammation multi-analyte profile (MAP) of patient plasma; assay type: in vivo; conditions: first two patients, single IV dose 0.05 mg/kg
Description: The patient plasma samples also were analyzed using a human inflammation multi-analyte profile (MAP) of 46 different cytokines, chemokines, acute-phase reactants, and other plasma inflammatory biomarkers.

HA catabolites = HA catabolites in dogs; assay type: in vivo, beagle dog; conditions: after PEGPH20 administration, with or without dexamethasone
Description: HA catabolites also were measured as described in Example 6.

[4] = Day 1, PEGPH20 4.5 mg/kg IV Q3Dx5 and/or dexamethasone 1.25 mg/kg IP QDx13
[5] = Day 6, PEGPH20 4.5 mg/kg IV Q3Dx5 and/or dexamethasone 1.25 mg/kg IP QDx13
[6] = Day 9, PEGPH20 4.5 mg/kg IV Q3Dx5 and/or dexamethasone 1.25 mg/kg IP QDx13
[7] = Day 13, PEGPH20 4.5 mg/kg IV Q3Dx5 and/or dexamethasone 1.25 mg/kg IP QDx13
[8] = Day 16, PEGPH20 4.5 mg/kg IV Q3Dx5 and/or dexamethasone 1.25 mg/kg IP QDx13
[9] = Day 20, PEGPH20 4.5 mg/kg IV Q3Dx5 and/or dexamethasone 1.25 mg/kg IP QDx13
[10] = Day −2 (pre-treatment), PEGPH20 4.5 mg/kg IV Q3Dx5 and/or dexamethasone 1.25 mg/kg IP QDx13
[11] = Day 4, PEGPH20 4.5 mg/kg IV x6 and/or dexamethasone 1.25 mg/kg IP QDx17
[12] = Day 7, PEGPH20 4.5 mg/kg IV x6 and/or dexamethasone 1.25 mg/kg IP QDx17
[13] = Day 11, PEGPH20 4.5 mg/kg IV x6 and/or dexamethasone 1.25 mg/kg IP QDx17
[14] = Day 14, PEGPH20 4.5 mg/kg IV x6 and/or dexamethasone 1.25 mg/kg IP QDx17
[15] = Day 17, PEGPH20 4.5 mg/kg IV x6 and/or dexamethasone 1.25 mg/kg IP QDx17
[16] = Day −1 (pre-treatment), PEGPH20 4.5 mg/kg IV x6 and/or dexamethasone 1.25 mg/kg IP QDx17
[17] = Day −4 (pre-treatment), PEGPH20 4.5 mg/kg IV x6 and/or dexamethasone 1.25 mg/kg IP QDx17

C[C@@H]1C[C@H]2[C@@H]3CCC4=CC(=O)C=C[C@]4(C)[C@@]3(F)[C@@H](O)C[C@]2(C)[C@@]1(O)C(=O)CO [Dexamethasone]
Tumor volume [1, 4]: 636.98 mm^3 | Tumor volume ([1]; Day 1, dexamethasone 5 mg/kg IP QDx13, alone or + PEGPH20 4.5 mg/kg IV Q3Dx5): 633.84 mm^3 | Tumor volume [1, 5]: 727.80 mm^3 | Tumor volume ([1]; Day 6, dexamethasone 5 mg/kg IP QDx13, alone or + PEGPH20 4.5 mg/kg IV Q3Dx5): 854.90 mm^3 | Tumor volume [1, 6]: 964.35 mm^3 | Tumor volume ([1]; Day 9, dexamethasone 5 mg/kg IP QDx13, alone or + PEGPH20 4.5 mg/kg IV Q3Dx5): 995.47 mm^3 | Tumor volume [1, 7]: 1202.35 mm^3 | Tumor volume ([1]; Day 13, dexamethasone 5 mg/kg IP QDx13, alone or + PEGPH20 4.5 mg/kg IV Q3Dx5): 1211.50 mm^3 | Tumor volume [1, 8]: 1401.91 mm^3 | Tumor volume ([1]; Day 16, dexamethasone 5 mg/kg IP QDx13, alone or + PEGPH20 4.5 mg/kg IV Q3Dx5): 1455.27 mm^3 | Tumor volume [1, 9]: 1792.92 mm^3 | Tumor volume ([1]; Day 20, dexamethasone 5 mg/kg IP QDx13, alone or + PEGPH20 4.5 mg/kg IV Q3Dx5): 1840.11 mm^3 | Tumor volume [1, 10]: 486.88 mm^3 | Tumor volume ([1]; Day −2 (pre-treatment), dexamethasone 5 mg/kg IP QDx13, alone or + PEGPH20 4.5 mg/kg IV Q3Dx5): 516.25 mm^3 | Tumor volume [2, 11]: 463.51 mm^3 | Tumor volume ([2]; Day 4, dexamethasone 5 mg/kg IP QDx17, alone or + PEGPH20 4.5 mg/kg IV x6): 396.26 mm^3 | Tumor volume [2, 12]: 609.40 mm^3 | Tumor volume ([2]; Day 7, dexamethasone 5 mg/kg IP QDx17, alone or + PEGPH20 4.5 mg/kg IV x6): 379.39 mm^3 | % TGI (% Tumor Growth Inhibition) ([2]; Day 7, dexamethasone 5 mg/kg alone or + PEGPH20 4.5 mg/kg): 53% | Tumor volume [2, 13]: 732.92 mm^3 | Tumor volume ([2]; Day 11, dexamethasone 5 mg/kg IP QDx17, alone or + PEGPH20 4.5 mg/kg IV x6): 481.54 mm^3 | % TGI (% Tumor Growth Inhibition) ([2]; Day 11, dexamethasone 5 mg/kg alone or + PEGPH20 4.5 mg/kg): 49% | Tumor volume [2, 14]: 796.84 mm^3 | Tumor volume ([2]; Day 14, dexamethasone 5 mg/kg IP QDx17, alone or + PEGPH20 4.5 mg/kg IV x6): 603.82 mm^3 | % TGI (% Tumor Growth Inhibition) ([2]; Day 14, dexamethasone 5 mg/kg alone or + PEGPH20 4.5 mg/kg): 46% | Tumor volume [2, 15]: 933.86 mm^3 | Tumor volume ([2]; Day 17, dexamethasone 5 mg/kg IP QDx17, alone or + PEGPH20 4.5 mg/kg IV x6): 720.95 mm^3 | % TGI (% Tumor Growth Inhibition) ([2]; Day 17, dexamethasone 5 mg/kg alone or + PEGPH20 4.5 mg/kg): 50% | Tumor volume [2, 16]: 312.65 mm^3 | Tumor volume ([2]; Day −1 (pre-treatment), dexamethasone 5 mg/kg IP QDx17, alone or + PEGPH20 4.5 mg/kg IV x6): 231.18 mm^3 | Tumor volume [2, 17]: 202.85 mm^3 | Tumor volume ([2]; Day −4 (pre-treatment), dexamethasone 5 mg/kg IP QDx17, alone or + PEGPH20 4.5 mg/kg IV x6): 197.29 mm^3

B1: PEGPH20 (protein)
chain: LNFRAPPVIPNVPFLWAWNAPSEFCLGKFDEPLDMSLFSFIGSPRINATGQGVTIFYVDRLGYYPYIDSITGVTVNGGIPQKISLQDHLDKAKKDITFYMPVDNLGMAVIDWEEWRPTWARNWKPKDVYKNRSIELVQQQNVQLSLTEATEKAKQEFEKAGKDFLVETIKLGKLLRPNHLWGYYLFPDCYNHHYKKPGYNGSCFNVEIKRNDDLSWLWNESTALYPSIYLNTQQSPVAATLYVRNRVREAIRVSKIPDAKSPLPVFAYTRIVFTDQVLKFLSQDELVYTFGETVALGASGIVIWGTLSIMRSMKSCLLLDNYMETILNPYIINVTLAAKMCSQVLCQEQGVCIRKNWNSSDYLHLNPDNFAIQLEKGGKFTVRGKPTLEDLEQFSEKFYCSCYSTLSCKEKADVKDTDAVDVCIADGVCIDAFLKPPMETEEPQIFY
Tumor volume [1, 4]: 394.38 mm^3 | % TGI (% Tumor Growth Inhibition) ([1]; Day 1, PEGPH20 4.5 mg/kg alone or + dexamethasone 1.25 mg/kg): TR | Tumor volume [1, 5]: 598.39 mm^3 | % TGI (% Tumor Growth Inhibition) ([1]; Day 6, PEGPH20 4.5 mg/kg alone or + dexamethasone 1.25 mg/kg): 71% | Tumor volume [1, 6]: 674.83 mm^3 | % TGI (% Tumor Growth Inhibition) ([1]; Day 9, PEGPH20 4.5 mg/kg alone or + dexamethasone 1.25 mg/kg): 64% | Tumor volume [1, 7]: 827.53 mm^3 | % TGI (% Tumor Growth Inhibition) ([1]; Day 13, PEGPH20 4.5 mg/kg alone or + dexamethasone 1.25 mg/kg): 56% | Tumor volume [1, 8]: 1046.73 mm^3 | % TGI (% Tumor Growth Inhibition) ([1]; Day 16, PEGPH20 4.5 mg/kg alone or + dexamethasone 1.25 mg/kg): 47% | Tumor volume [1, 9]: 1310.85 mm^3 | % TGI (% Tumor Growth Inhibition) ([1]; Day 20, PEGPH20 4.5 mg/kg alone): 41% | Tumor volume [1, 10]: 491.10 mm^3 | Tumor volume [2, 11]: 350.44 mm^3 | % TGI (% Tumor Growth Inhibition) ([2]; Day 4, PEGPH20 4.5 mg/kg alone or + dexamethasone 1.25 mg/kg): 68% | Tumor volume [2, 12]: 394.40 mm^3 | % TGI (% Tumor Growth Inhibition) ([2]; Day 7, PEGPH20 4.5 mg/kg alone or + dexamethasone 1.25 mg/kg): 63% | Tumor volume [2, 13]: 473.50 mm^3 | % TGI (% Tumor Growth Inhibition) ([2]; Day 11, PEGPH20 4.5 mg/kg alone or + dexamethasone 1.25 mg/kg): 60% | Tumor volume [2, 14]: 596.96 mm^3 | % TGI (% Tumor Growth Inhibition) ([2]; Day 14, PEGPH20 4.5 mg/kg alone or + dexamethasone 1.25 mg/kg): 54% | Tumor volume [2, 15]: 790.16 mm^3 | % TGI (% Tumor Growth Inhibition) ([2]; Day 17, PEGPH20 4.5 mg/kg alone or + dexamethasone 1.25 mg/kg): 48% | Tumor volume [2, 16]: 275.75 mm^3 | Tumor volume [2, 17]: 196.87 mm^3 | inflammation MAP findings [3]: No notable findings | HA catabolites (HA catabolites): appearance of HA catabolites
